Reference: ChEMBL document CHEMBL4257557, “Design, synthesis, and evaluation of 4,5,6,7-tetrahydrobenzo[d]thiazole-based novel dual kinase inhibitors of CK2 and GSK3β” (Medchemcomm, 2018)

What was measured:
[1] = target: T1, Casein kinase II subunit alpha (Homo sapiens, UniProt P68400); test: Inhibition of recombinant full length human His-tagged CK2alpha1 expressed in baculovirus expression system using ser/thr-11 peptide as substrate measured after 1 hr by Z'-Lyte assay
Target sequence in this assay (P68400 whole entry): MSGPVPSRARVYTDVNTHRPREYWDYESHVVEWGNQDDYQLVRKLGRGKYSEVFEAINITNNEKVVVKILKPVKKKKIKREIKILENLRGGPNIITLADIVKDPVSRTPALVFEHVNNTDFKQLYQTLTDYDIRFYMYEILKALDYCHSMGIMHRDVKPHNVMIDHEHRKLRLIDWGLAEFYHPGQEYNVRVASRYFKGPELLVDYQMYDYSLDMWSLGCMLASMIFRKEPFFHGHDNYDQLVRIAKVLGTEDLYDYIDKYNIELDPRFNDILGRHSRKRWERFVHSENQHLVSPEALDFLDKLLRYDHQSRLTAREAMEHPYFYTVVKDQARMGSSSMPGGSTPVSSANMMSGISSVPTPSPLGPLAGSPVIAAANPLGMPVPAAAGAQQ

[2] = target: T2, Glycogen synthase kinase-3 beta (Homo sapiens, UniProt P49841); test: Inhibition of recombinant full length human His-tagged GSK3beta expressed in baculovirus expression system at 11 uM using ser/thr-9 peptide as substrate measured after 1 hr by Z'-Lyte assay relative to control
Target sequence in this assay (P49841 whole entry, looked up): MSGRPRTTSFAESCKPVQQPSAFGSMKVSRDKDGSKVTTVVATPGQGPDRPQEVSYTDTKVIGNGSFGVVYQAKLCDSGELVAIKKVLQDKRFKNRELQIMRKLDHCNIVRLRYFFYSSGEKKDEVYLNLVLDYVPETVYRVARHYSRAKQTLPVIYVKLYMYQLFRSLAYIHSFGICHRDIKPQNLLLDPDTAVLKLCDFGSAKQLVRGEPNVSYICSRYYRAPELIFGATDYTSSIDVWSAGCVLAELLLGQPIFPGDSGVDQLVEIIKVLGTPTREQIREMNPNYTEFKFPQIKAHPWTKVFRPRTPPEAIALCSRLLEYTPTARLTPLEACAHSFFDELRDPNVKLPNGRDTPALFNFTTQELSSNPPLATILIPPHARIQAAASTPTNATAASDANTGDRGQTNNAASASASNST

[3] = target: T2, Glycogen synthase kinase-3 beta; test: Inhibition of recombinant full length human His-tagged GSK3beta expressed in baculovirus expression system using ser/thr-9 peptide as substrate measured after 1 hr by Z'-Lyte assay
Target sequence in this assay (P49841 whole entry): as the sequence (P49841 whole entry, looked up) above

[4] = target: T1, Casein kinase II subunit alpha; test: Inhibition of recombinant full length human His-tagged CK2alpha1 expressed in baculovirus expression system at 11 uM using ser/thr-11 peptide as substrate measured after 1 hr by Z'-Lyte assay relative to control
Target sequence in this assay (P68400 whole entry, looked up): as the sequence (P68400 whole entry) above

Row | Compound | IC50 [1] [µM] | inhibition [2] [%] | IC50 [3] [µM] | inhibition [4] [%]
1 | CCOC(=O)c1cccc(NC(=O)Nc2nc3c(s2)CC(N2C(=O)c4ccccc4C2=O)CC3)c1 (stereo not drawn) | 7.9 | > 30 | 5.3 | > 30
2 | CCCN(C(=O)Nc1ccc(OC)cc1)C1CCc2nc(NCc3ccc(C(=O)O)cc3)sc2C1 (stereo not drawn) |  | < 30 |  | < 30
3 | CCCN(C(=O)Nc1cccc(F)c1)C1CCc2nc(NCc3ccc(C(=O)O)cc3)sc2C1 (stereo not drawn) |  | < 30 |  | < 30
4 | O=C(Nc1nc2c(s1)CC(N1C(=O)c3ccccc3C1=O)CC2)Nc1ccccc1F (stereo not drawn) |  | < 30 |  | < 30
5 | O=C(Nc1ccc(F)cc1)Nc1nc2c(s1)CC(N1C(=O)c3ccccc3C1=O)CC2 (stereo not drawn) |  | < 30 |  | < 30
6 | CCCN(C(=O)Nc1ccc(F)cc1)C1CCc2nc(NCc3ccc(C(=O)OC)cc3)sc2C1 (stereo not drawn) |  | < 30 |  | < 30
7 | CCCN(C(=O)Nc1ccc(F)cc1)C1CCc2nc(NC(=O)Nc3ccc(F)cc3)sc2C1 (stereo not drawn) |  | < 30 |  | < 30
8 | CCCN(C(=O)Nc1cccc(C(=O)O)c1)C1CCc2nc(NC(=O)Nc3cccc(C(=O)O)c3)sc2C1 (stereo not drawn) | 2.8 | > 30 | 1.5 | > 30
9 | CCCN(C(=O)Nc1cccc(F)c1)C1CCc2nc(NCc3ccc(C(=O)OC)cc3)sc2C1 (stereo not drawn) |  | < 30 |  | < 30
10 | CCCN(C(=O)Nc1ccc(F)cc1)C1CCc2nc(NCc3ccc(C(=O)O)cc3)sc2C1 (stereo not drawn) |  | < 30 |  | < 30
11 | CCCN(C(=O)Nc1cccc(C(=O)OCC)c1)C1CCc2nc(NCc3ccc(C(=O)OC)cc3)sc2C1 (stereo not drawn) | 4.6 | > 30 | 13.6 | > 30
12 | O=C(Nc1cccc(F)c1)Nc1nc2c(s1)CC(NC(=O)Nc1cccc(F)c1)CC2 (stereo not drawn) |  | < 30 |  | < 30
13 | CCOC(=O)c1ccc(NC(=O)Nc2nc3c(s2)CC(NC(=O)Nc2ccc(C(=O)OCC)cc2)CC3)cc1 (stereo not drawn) |  | < 30 |  | < 30
14 | CCCN(C(=O)Nc1ccccc1F)C1CCc2nc(NC(=O)Nc3ccccc3F)sc2C1 (stereo not drawn) |  | < 30 |  | < 30
15 | O=C(Nc1nc2c(s1)CC(NC(=O)Nc1ccccc1F)CC2)Nc1ccccc1F (stereo not drawn) |  | < 30 |  | < 30
16 | O=C(Nc1ccc(F)cc1)Nc1nc2c(s1)CC(NC(=O)Nc1ccc(F)cc1)CC2 (stereo not drawn) |  | < 30 |  | < 30
17 | CCCN(C(=O)Nc1ccc(OC)cc1)C1CCc2nc(NC(=O)Nc3ccc(OC)cc3)sc2C1 (stereo not drawn) |  | < 30 |  | < 30
18 | O=C(Nc1cccc(C(=O)O)c1)Nc1nc2c(s1)CC(N1C(=O)c3ccccc3C1=O)CC2 (stereo not drawn) | 1.9 | > 30 | 0.67 | > 30

Row | Compound | IC50 [1] [µM] | inhibition [2] [%] | IC50 [3] [µM] | inhibition [4] [%]
19 | CCCN(C(=O)Nc1ccc(C(=O)OCC)cc1)C1CCc2nc(NCc3ccc(C(=O)OC)cc3)sc2C1 (stereo not drawn) |  | < 30 |  | < 30
20 | CCCN(C(=O)Nc1ccccc1F)C1CCc2nc(NCc3ccc(C(=O)OC)cc3)sc2C1 (stereo not drawn) |  | < 30 |  | < 30
21 | CCOC(=O)c1ccc(NC(=O)Nc2nc3c(s2)CC(N2C(=O)c4ccccc4C2=O)CC3)cc1 (stereo not drawn) |  | < 30 |  | < 30
22 | CCCN(C(=O)Nc1cccc(F)c1)C1CCc2nc(NC(=O)Nc3cccc(F)c3)sc2C1 (stereo not drawn) |  | < 30 |  | < 30
23 | O=C(Nc1ccc(C(=O)O)cc1)Nc1nc2c(s1)CC(NC(=O)Nc1ccc(C(=O)O)cc1)CC2 (stereo not drawn) |  | < 30 |  | < 30
24 | O=C(Nc1cccc(F)c1)Nc1nc2c(s1)CC(N1C(=O)c3ccccc3C1=O)CC2 (stereo not drawn) |  | < 30 |  | < 30
25 | O=C(Nc1ccc(C(=O)O)cc1)Nc1nc2c(s1)CC(N1C(=O)c3ccccc3C1=O)CC2 (stereo not drawn) | 4.9 | > 30 | 4.6 | > 30
26 | COc1ccc(NC(=O)Nc2nc3c(s2)CC(N2C(=O)c4ccccc4C2=O)CC3)cc1 (stereo not drawn) |  | < 30 |  | < 30
27 | CCCN(C(=O)Nc1ccc(C(=O)OCC)cc1)C1CCc2nc(NC(=O)Nc3ccc(C(=O)OCC)cc3)sc2C1 (stereo not drawn) |  | < 30 |  | < 30
28 | CCCN(C(=O)Nc1ccccc1F)C1CCc2nc(NCc3ccc(C(=O)O)cc3)sc2C1 (stereo not drawn) |  | < 30 |  | < 30
29 | COc1ccc(NC(=O)Nc2nc3c(s2)CC(NC(=O)Nc2ccc(OC)cc2)CC3)cc1 (stereo not drawn) |  | < 30 |  | < 30
30 | CCCN(C(=O)Nc1cccc(C(=O)O)c1)C1CCc2nc(NCc3ccc(C(=O)O)cc3)sc2C1 (stereo not drawn) | 4 | > 30 | 11.4 | > 30
31 | CCCN(C(=O)Nc1cccc(C(=O)OCC)c1)C1CCc2nc(NC(=O)Nc3cccc(C(=O)OCC)c3)sc2C1 (stereo not drawn) |  | < 30 |  | < 30
32 | CCOC(=O)c1cccc(NC(=O)Nc2nc3c(s2)CC(NC(=O)Nc2cccc(C(=O)OCC)c2)CC3)c1 (stereo not drawn) | 20.4 | > 30 | 2.5 | > 30
33 | O=C(Nc1cccc(C(=O)O)c1)Nc1nc2c(s1)CC(NC(=O)Nc1cccc(C(=O)O)c1)CC2 (stereo not drawn) | 12.4 | > 30 | 6 | > 30
34 | CCCN(C(=O)Nc1ccc(OC)cc1)C1CCc2nc(NCc3ccc(C(=O)OC)cc3)sc2C1 (stereo not drawn) |  | < 30 |  | < 30
35 | CCCN(C(=O)Nc1ccc(C(=O)O)cc1)C1CCc2nc(NCc3ccc(C(=O)O)cc3)sc2C1 (stereo not drawn) |  | < 30 |  | < 30
36 | CCCN(C(=O)Nc1ccc(C(=O)O)cc1)C1CCc2nc(NC(=O)Nc3ccc(C(=O)O)cc3)sc2C1 (stereo not drawn) |  | < 30 |  | < 30
